Results published in publication PMC6270595, “Synthesis and Cytotoxicity of Novel 10-Substituted Dihydroartemisinin Derivatives Containing N-Arylphenyl-ethenesulfonamide Groups” (Molecules, 2013).
Like-named read-outs stand apart in the source and are kept apart here.

Key:
[1] = test system: WI-38 (human fetal lung fibroblasts); assay: MTT cytotoxicity assay, normal cell line WI-38; format: cell-based; details: normal WI-38 cells, 50% cell growth inhibition after 72 h of drug exposure, read-out: IC50(μM) WI38
Description: (§1) The cytotoxic activities of target compounds were evaluated against HT-29 (human colon cancer), MDA-MB-231 (human breast cancer), U87MG (human glioblastoma), H460 (human lung cancer), A549 (non-small-cell lung adenocarcinoma), HL-60 (human leukemic) cancer cell lines and one normal cell line WI-38 (human fetal lung fibroblasts) together with references DHA and cisplatin by a MTT assay.
(§2) The cytotoxic activities of compounds 3a–h and 6a–j were evaluated with the HT-29, MDA-MB-231, U87MG, H460, A549, HL-60 cancer cell lines and one normal cell line, WI-38, by the standard MTT assay in vitro [20], with DHA as the positive control. The cell lines were cultured in minimum essential medium (MEM) supplement with 10% fetal bovine serum (FBS). Approximately 4 × 10^3 cells, suspended in MEM medium, were plated on to each well of a 96-well plate and incubated in 5% CO2 at 37 °C for 24 h. The test compounds at indicated final concentrations were added to the culture medium and the cell cultures were continued for 72 h. Fresh MTT was added to each well at a terminal concentration of 5 μg/mL and incubated with cells at 37 °C for 4 h. The formazan crystals were dissolved in 100 μL DMSO each well, and the absorbency at 492 nm (for absorbance of MTT formazan) and 630 nm (for the reference wavelength) was measured with the ELISA reader. All of the compounds were tested twice in each of the cell lines. The results expressed as IC50 (inhibitory concentration 50%) were the averages of two determinations and calculated using the Bacus Laboratories Incorporated Slide Scanner (Bliss) software.

[2] = test system: A549 (non-small-cell lung adenocarcinoma); assay: MTT cytotoxicity assay, A549; format: cell-based, human; details: A549 cells, 50% cell growth inhibition after 72 h of drug exposure
Description: as §1, §2

[3] = test system: H460 (human lung cancer); assay: MTT cytotoxicity assay, H460; format: cell-based; details: for IC50: H460 cells, 50% cell growth inhibition after 72 h of drug exposure, MTT
Description: as §1, §2

[4] = test system: HT-29 (human colon cancer); assay: MTT cytotoxicity assay, HT-29; format: cell-based; details: HT-29 cells, 50% cell growth inhibition after 72 h of drug exposure, read-out: IC50(μM) HT29
Description: as §1, §2

[5] = test system: HL-60 (human leukemic); assay: MTT cytotoxicity assay, HL-60; format: cell-based; details: for IC50: HL-60 cells, 50% cell growth inhibition after 72 h of drug exposure, MTT
Description: as §1, §2

[6] = test system: MDA-MB-231 (human breast cancer); assay: MTT cytotoxicity assay, MDA-MB-231; format: cell-based; details: MDA-MB-231 cells, 50% cell growth inhibition after 72 h of drug exposure
Description: as §1, §2

[7] = test system: U87MG (human glioblastoma); assay: MTT cytotoxicity assay, U87MG; format: cell-based; details: for IC50: U87MG cells, 50% cell growth inhibition after 72 h of drug exposure, MTT
Description: as §1, §2

Structure (SMILES) | melting point [°C] | IC50 ([1]; Homo sapiens) [µM] | IC50 ([2]; Homo sapiens) [µM] | activity fold higher than that of benzamide analog 6c ([3]; H460, versus 6c) [fold] | IC50 ([3]; Homo sapiens, NCI-H460) [µM] | IC50 ([4]; Homo sapiens) [µM] | activity fold higher than that of benzamide analog 6c ([5]; HL-60, versus 6c) [fold] | IC50 ([5]; Homo sapiens) [µM] | selectivity index (IC50 normal cell/IC50 cancer cell) ([5]; WI-38 normal cells versus HL-60) | IC50 ([6]; Homo sapiens) [µM] | IC50 ([7]; Homo sapiens, U-87 MG) [µM] | activity fold higher than that of benzamide analog 6c ([7]; U87MG, versus 6c) [fold] | IC50 [1] [µM] | IC50 [2] [µM] | IC50 [3] [µM] | IC50 [4] [µM] | IC50 [5] [µM] | IC50 [6] [µM] | IC50 [7] [µM]
C[C@@H]1CC[C@H]2[C@@H](C)C(OCCOc3ccc(/C=C/S(=O)(=O)Nc4ccc(OC(F)(F)F)cc4)cc3)O[C@@H]3O[C@@]4(C)CC[C@@H]1[C@]32OO4 (stereo partly drawn) [Compound 3c, (E)-2-(4-(2-(10β-Dihydroartemisinoxy)ethoxy)phenyl)-N-(4-trifluoromethoxyphenyl)ethenesulfonamide] |  | 37.5 | 2.11 | 3 | 0.97 | 0.2 | 2 | 0.05 | 750 | 0.39 | 1.59 | 2 |  |  |  |  |  |  | 
C[C@@H]1CC[C@H]2[C@@H](C)C(OCCOc3ccc(/C=C/S(=O)(=O)Nc4c(Cl)cccc4Cl)cc3)O[C@@H]3O[C@@]4(C)CC[C@@H]1[C@]32OO4 (stereo partly drawn) [Compound 3h, (E)-2-(4-(2-(10β-Dihydroartemisinoxy)ethoxy)phenyl)-N-(2,6-dichlorophenyl)ethenesulfonamide] | 144 to 146 | 20.7 | 4.33 |  | 1.28 | 0.49 |  | 0.14 |  | 1.07 | 2.51 |  |  |  |  |  |  |  | 
C[C@@H]1CC[C@H]2[C@@H](C)C(OCCOc3ccc(/C=C/S(=O)(=O)Nc4ccccc4Cl)cc3)O[C@@H]3O[C@@]4(C)CC[C@@H]1[C@]32OO4 (stereo partly drawn) [Compound 3g, (E)-2-(4-(2-(10β-Dihydroartemisinoxy)ethoxy)phenyl)-N-(2-chlorophenyl)ethenesulfonamide] | 141 to 143 | 16.3 | 3.05 |  | 2.53 | 0.55 |  | 0.17 |  | 0.93 | 1.78 |  |  |  |  |  |  |  | 
C[C@H]1[C@@H](O)O[C@@H]2O[C@@]3(C)CC[C@H]4[C@H](C)CC[C@@H]1[C@@]24OO3 [DHA, dihydroartemisinin] |  | > 100 | 10.1 |  | 12.4 | 5.6 |  | 5.29 |  | 9.8 | 15.8 |  |  |  |  |  |  |  | 
Cc1ccc(F)c(NS(=O)(=O)/C=C/c2ccc(OCCOC3O[C@@H]4O[C@@]5(C)CC[C@H]6[C@H](C)CC[C@@H]([C@H]3C)[C@@]46OO5)cc2)c1 (stereo partly drawn) [Compound 3d, (E)-2-(4-(2-(10β-Dihydroartemisinoxy)ethoxy)phenyl)-N-(2-fluoro-5-methylphenyl)ethenesulfonamide] | 138 to 140 | 20.5 | 3.64 |  | 4.29 | 1.78 |  | 0.84 |  | 1.27 | 5.71 |  |  |  |  |  |  |  | 
C[C@@H]1CC[C@H]2[C@@H](C)C(OCCNC(=O)c3ccc(COc4ccc(/C=C/S(=O)(=O)Nc5ccc(OC(F)(F)F)cc5)cc4)cc3)O[C@@H]3O[C@@]4(C)CC[C@@H]1[C@]32OO4 (stereo partly drawn) [Compound 6c, (E)-N-(2-(10β-Dihydroartemisinoxy)ethyl)-4((4-(2-(N-(4-trifluoromethoxyphenyl)sulfamoyl)vinyl)phenoxy)methyl)benzamide] |  | 28.2 | 1.57 |  | 2.7 | 0.29 |  | 0.09 |  | 0.49 | 3.71 |  |  |  |  |  |  |  | 
N.N.[Cl][Pt][Cl] [Cisplatin, cisplatin, reference compound] |  |  |  |  |  |  |  |  |  |  |  |  | 51.2 | 4.31 | 7.55 | 10.3 | 9.28 | 6.82 | 8.21

Continued, in another order:

melting point [°C] | Structure (SMILES) | IC50 ([1]; Homo sapiens) [µM] | IC50 ([2]; Homo sapiens) [µM] | activity fold higher than that of benzamide analog 6c ([3]; H460, versus 6c) [fold] | IC50 ([3]; Homo sapiens, NCI-H460) [µM] | IC50 ([4]; Homo sapiens) [µM] | activity fold higher than that of benzamide analog 6c ([5]; HL-60, versus 6c) [fold] | IC50 ([5]; Homo sapiens) [µM] | selectivity index (IC50 normal cell/IC50 cancer cell) ([5]; WI-38 normal cells versus HL-60) | IC50 ([6]; Homo sapiens) [µM] | IC50 ([7]; Homo sapiens, U-87 MG) [µM] | activity fold higher than that of benzamide analog 6c ([7]; U87MG, versus 6c) [fold] | IC50 [1] [µM] | IC50 [2] [µM] | IC50 [3] [µM] | IC50 [4] [µM] | IC50 [5] [µM] | IC50 [6] [µM] | IC50 [7] [µM]
144 to 145 | COc1cccc(NS(=O)(=O)/C=C/c2ccc(OCc3ccc(C(=O)NCCOC4O[C@@H]5O[C@@]6(C)CC[C@H]7[C@H](C)CC[C@@H]([C@H]4C)[C@@]57OO6)cc3)cc2)c1 (stereo partly drawn) [Compound 6i, (E)-N-(2-(10β-Dihydroartemisinoxy)ethyl)-4((4-(2-(N-(3-methoxyphenyl)sulfamoyl)vinyl)phenoxy)methyl)benzamide] | 19.2 | 11.3 |  | 16.3 | 8.95 |  | 8.53 |  | 8.89 | > 100 |  |  |  |  |  |  |  | 
151 to 153 | C[C@@H]1CC[C@H]2[C@@H](C)C(OCCNC(=O)c3ccc(COc4ccc(/C=C/S(=O)(=O)Nc5c(Cl)cccc5Cl)cc4)cc3)O[C@@H]3O[C@@]4(C)CC[C@@H]1[C@]32OO4 (stereo partly drawn) [Compound 6h, (E)-N-(2-(10β-Dihydroartemisinoxy)ethyl)-4((4-(2-(N-(2,6-dichlorophenyl)sulfamoyl)vinyl)phenoxy)methyl)benzamide] | 23.5 | 2.34 |  | 1.21 | 0.44 |  | 0.18 |  | 0.88 | 3.12 |  |  |  |  |  |  |  | 
142 to 145 | C[C@@H]1CC[C@H]2[C@@H](C)C(OCCNC(=O)c3ccc(COc4ccc(/C=C/S(=O)(=O)Nc5ccccc5)cc4)cc3)O[C@@H]3O[C@@]4(C)CC[C@@H]1[C@]32OO4 (stereo partly drawn) [Compound 6a, (E)-N-(2-(10β-Dihydroartemisinoxy)ethyl)-4((4-(2-(N-phenylsulfamoyl)vinyl)phenoxy)methyl)benzamide] | 20 | 3.21 |  | 5.28 | 0.98 |  | 2.41 |  | 2.26 | 6.47 |  |  |  |  |  |  |  | 
143 to 145 | Cc1ccccc1NS(=O)(=O)/C=C/c1ccc(OCc2ccc(C(=O)NCCOC3O[C@@H]4O[C@@]5(C)CC[C@H]6[C@H](C)CC[C@@H]([C@H]3C)[C@@]46OO5)cc2)cc1 (stereo partly drawn) [Compound 6e, (E)-N-(2-(10β-Dihydroartemisinoxy)ethyl)-4((4-(2-(N-(2-methylphenyl)sulfamoyl)vinyl)phenoxy)methyl)benzamide] | 16.4 | 5.47 |  | 1.92 | 2.09 |  | 3.21 |  | 2.1 | 3.65 |  |  |  |  |  |  |  | 
152 to 154 | C[C@@H]1CC[C@H]2[C@@H](C)C(OCCNC(=O)c3ccc(COc4ccc(/C=C/S(=O)(=O)Nc5ccc(F)c(C(F)(F)F)c5)cc4)cc3)O[C@@H]3O[C@@]4(C)CC[C@@H]1[C@]32OO4 (stereo partly drawn) [Compound 6j, (E)-N-(2-(10β-Dihydroartemisinoxy)ethyl)-4((4-(2-(N-(3-trifluoromethyl-4fluorophenyl)sulfamoyl)vinyl)phenoxy)methyl)benzamide] | 30.4 | 2.78 |  | 5.31 | 0.38 |  | 1.27 |  | 1.05 | 3.27 |  |  |  |  |  |  |  | 
135 to 137 | Cc1ccc(F)c(NS(=O)(=O)/C=C/c2ccc(OCc3ccc(C(=O)NCCOC4O[C@@H]5O[C@@]6(C)CC[C@H]7[C@H](C)CC[C@@H]([C@H]4C)[C@@]57OO6)cc3)cc2)c1 (stereo partly drawn) [Compound 6d, (E)-N-(2-(10β-Dihydroartemisinoxy)ethyl)-4((4-(2-(N-(2-fluoro-5-methylphenyl)sulfamoyl)vinyl)phenoxy)methyl)benzamide] | 19.3 | 9.72 |  | 10.9 | 1.82 |  | 1.3 |  | 1.33 | 17.2 |  |  |  |  |  |  |  | 
